Legend:
Type in all cases: cell-based, Thiobacillus
Thiobacilli = assay: Acidification of water on sulfur block treated with salt powder and covered with sand (Example 9); conditions: about 150 g of salt in powder form on surface, 2 cm sand
Method: Two blocks of elemental sulfur with an upper surface of approximately 2500 cm^2 (8.5 Kg of sulfur) are positioned in two containers. The upper surface of each block of sulfur is wetted with 250 ml of a bacterial suspension of Thiobacilli containing over 10^8 bacteria per milliliter. The surface of one block is then treated with sodium chloride by spreading about 150 g of salt in powder form uniformly distributed. The two blocks are subsequently covered with a 2 cm layer of sand and wetted at regular intervals of time with rainwater until the layer of sand is saturated and the rilling of excess water is produced with respect to the saturation. Rainwater is added every month in a quantity equivalent to a fall of 100 mm.
The containers are exposed to the outside environment for three months. At the end of this period, the pH of the water in contact with the sulfur in the two containers, is measured.

Thiobacilli (consortium) [1] = assay: Acidification of TM medium with sulfur powder inoculated with a culture of Thiobacilli (Example 3); conditions: 33 g/l NaCl
Method: 25 ml of TM medium (regulated to pH 6 with HCl 0.1 N and sterilized in an autoclave with vapour for 20 minutes at 121° C.) were introduced into 100 ml flasks. 0.1 g (0.4%) of elemental sulfur (sulfur powder 98%-UNI sieved:0.05) were added to the TM culture medium. 2 g of small sulfur fragments taken from a sulfur deposit in Canada exposed for years to the outside environment and consequently definitely contaminated by sulfo-oxidizing bacteria, were added to the medium as a source of micro-organisms. The cultures were incubated under bland orbital stirring (100 rpm) for 25 days. During the incubation, the cultures were controlled daily for the indirect quantitative evaluation of the cellular development by registering the optical density value (at 600 nm) and to measure the lowering of the pH value.
At the end of this period, the culture broths obtained, with a cellular density higher than 10^7 cells/ml and a lowering of the pH of the medium to a value of 1.5, were filtered on common filter paper to eliminate the particles of excess sulfur and to be preserved, in 2 ml aliquots, in polypropylene phials, in a refrigerator at −70° C., as standardized inoculum.
The two consortia: that produced starting from collection strains and the one prepared starting from sulfur samples removed from actual deposits, were compared with respect to the growth curves and acidification capacity. […] It was then decided to use, for the whole following experiment, the trigger culture consisting of the wild type strains selected from the natural environment. This culture is hereafter called “consortium”.
25 ml of TM—in demineralized water—at pH 6, inoculated with 0.4% (vol/vol) of the bacterial suspension (consortium), with the addition of 0.1 g of sulfur powder, were introduced into 100 ml flasks. 33 g/l of NaCl were added to the medium to evaluate the inhibiting effect of the salt on the growth of the Thiobacilli and the acidification of the solution. Control cultures without NaCl were incubated parallelly.
The culture broths were controlled for pH and absorbance variations.

Thiobacilli (consortium) [2] = assay: Effect of different salts on acidification, TM medium with sulfur powder and inoculated mixed culture (Example 7)
Method: The verification is aimed at discovering the effects deriving from the presence of different salts at varying concentrations on the same consortium.
A series of 12 100 ml flasks containing 50 ml of TM medium (with 0.4 g of sulfur powder), was inoculated with 1 ml of mixed culture containing 10^8 cells/ml.
• 3 control flasks containing TM and sulfur, with NaCl (0.16 M, 0.33 M, 0.56 M); • 3 flasks with TM, sulfur and Na2SO4 (0.12 M, 0.24 M, 0.56 M); • 3 flasks with TM, sulfur and KCl (0.13 M, 0.26 M, 0.56 M); • 3 flasks with TM, sulfur and KNO3 (0.09 M, 0.19 M, 0.56 M) The data collected are listed in Table 6.

`[Cl-].[Na+]` [NaCl, Sodium Chloride] was tested, and the pH (Thiobacilli; day 0) was 6.0, the pH (Thiobacilli; day 10) was 5.8 and the pH (Thiobacilli; day 20) was 5.7. It also gave a pH (Thiobacilli; day 30) of 5.7, a pH (Thiobacilli; day 40) of 5.7 and a pH (Thiobacilli; day 90) of 5.7. It also gave an Optical density (Thiobacilli (consortium) [1]; day 0) of 0.021, a pH (Thiobacilli (consortium) [1]; day 0) of 6.0 and an Optical density (Thiobacilli (consortium) [1]; day 1) of 0.025. The pH (Thiobacilli (consortium) [1]; day 1) was 6.0, the Optical density (Thiobacilli (consortium) [1]; day 3) was 0.024 and the pH (Thiobacilli (consortium) [1]; day 3) was 6.0. The Optical density (Thiobacilli (consortium) [1]; day 5) was 0.028, the pH (Thiobacilli (consortium) [1]; day 5) was 5.8 and the Optical density (Thiobacilli (consortium) [1]; day 9) was 0.021. For the same compound, the pH (Thiobacilli (consortium) [1]; day 9) was 5.8, the Optical density (Thiobacilli (consortium) [1]; day 12) was 0.021 and the pH (Thiobacilli (consortium) [1]; day 12) was 5.8. It also gave an Optical density (Thiobacilli (consortium) [1]; day 14) of 0.021, a pH (Thiobacilli (consortium) [1]; day 14) of 5.8 and an Optical density (Thiobacilli (consortium) [1]; day 16) of 0.014. For the same compound, the pH (Thiobacilli (consortium) [1]; day 16) was 5.8, the Optical density (Thiobacilli (consortium) [1]; day 19) was 0.012 and the pH (Thiobacilli (consortium) [1]; day 19) was 5.8. For the same compound, the Optical density (Thiobacilli (consortium) [1]; day 21) was 0.010, the pH (Thiobacilli (consortium) [1]; day 21) was 5.8 and the Optical density (Thiobacilli (consortium) [1]; day 24) was 0.010. It also gave a pH (Thiobacilli (consortium) [1]; day 24) of 5.8, an Optical density (Thiobacilli (consortium) [1]; day 26) of 0.014 and a pH (Thiobacilli (consortium) [1]; day 26) of 5.8. The PH (Thiobacilli (consortium) [2]; salt 0.16 M, day 0) was 6.0, the PH (Thiobacilli (consortium) [2]; salt 0.16 M, day 2) was 6.0 and the PH (Thiobacilli (consortium) [2]; salt 0.16 M, day 6) was 3.5. The PH (Thiobacilli (consortium) [2]; salt 0.16 M, day 9) was 2.8, the PH (Thiobacilli (consortium) [2]; salt 0.16 M, day 12) was 2.8 and the PH (Thiobacilli (consortium) [2]; salt 0.16 M, day 15) was 2.5. The PH (Thiobacilli (consortium) [2]; salt 0.16 M, day 18) was 2.5, the PH (Thiobacilli (consortium) [2]; salt 0.16 M, day 20) was 2.5 and the PH (Thiobacilli (consortium) [2]; salt 0.16 M, day 24) was 2.0. For the same compound, the PH (Thiobacilli (consortium) [2]; salt 0.16 M, day 28) was 1.7, the PH (Thiobacilli (consortium) [2]; salt 0.16 M, day 30) was 1.6 and the PH (Thiobacilli (consortium) [2]; salt 0.16 M, day 40) was 1.3. It also gave a PH (Thiobacilli (consortium) [2]; salt 0.33 M, day 0) of 6.0, a PH (Thiobacilli (consortium) [2]; salt 0.33 M, day 2) of 6.0 and a PH (Thiobacilli (consortium) [2]; salt 0.33 M, day 6) of 5.5. For the same compound, the PH (Thiobacilli (consortium) [2]; salt 0.33 M, day 9) was 5.0, the PH (Thiobacilli (consortium) [2]; salt 0.33 M, day 12) was 3.0 and the PH (Thiobacilli (consortium) [2]; salt 0.33 M, day 15) was 3.0. It also gave a PH (Thiobacilli (consortium) [2]; salt 0.33 M, day 18) of 3.0, a PH (Thiobacilli (consortium) [2]; salt 0.33 M, day 20) of 2.5 and a PH (Thiobacilli (consortium) [2]; salt 0.33 M, day 24) of 2.5. The PH (Thiobacilli (consortium) [2]; salt 0.33 M, day 28) was 1.9, the PH (Thiobacilli (consortium) [2]; salt 0.33 M, day 30) was 1.7 and the PH (Thiobacilli (consortium) [2]; salt 0.33 M, day 40) was 1.4. The PH (Thiobacilli (consortium) [2]; salt 0.56 M, day 0) was 6.0, the PH (Thiobacilli (consortium) [2]; salt 0.56 M, day 2) was 6.0 and the PH (Thiobacilli (consortium) [2]; salt 0.56 M, day 6) was 6.0. For the same compound, the PH (Thiobacilli (consortium) [2]; salt 0.56 M, day 9) was 6.0, the PH (Thiobacilli (consortium) [2]; salt 0.56 M, day 12) was 6.0 and the PH (Thiobacilli (consortium) [2]; salt 0.56 M, day 15) was 6.0. The PH (Thiobacilli (consortium) [2]; salt 0.56 M, day 18) was 6.0, the PH (Thiobacilli (consortium) [2]; salt 0.56 M, day 20) was 6.0 and the PH (Thiobacilli (consortium) [2]; salt 0.56 M, day 24) was 6.0. The PH (Thiobacilli (consortium) [2]; salt 0.56 M, day 28) was 6.0, the PH (Thiobacilli (consortium) [2]; salt 0.56 M, day 30) was 6.0 and the PH (Thiobacilli (consortium) [2]; salt 0.56 M, day 40) was 5.8.

From patent US7585460B2, “Method for inhibiting the biological acidification of water in contact with materials containing sulfur” (ENI S.p.A., priority 2003, dated 2009)
